Measurements reported in publication PMC9481597 (Communications Biology, 2022).
“And” between values parts separate entries of the source, which are not always exact repeats. Identical values can stand only once. “Also recorded” adds a separate entry of the source. Like-named read-outs stand apart in the source and are kept apart here. Marks after values point to notes of the source that are not given here.

What was measured:
MPro^1–196 [1] = biological target: T1, MPro^1–196 (Severe acute respiratory syndrome coronavirus 2, UniProt P0DTC1); set-up: species or system SARS-CoV-2
T1 construct: MPro^1–196 spans residues 1–196; 6His, spacer and TEV protease cleavage site (N, cleaved yes); made in house; host or cells: E. coli BL21-DE3

MPro^WT [2] = biological target: T2, MPro^WT (Severe acute respiratory syndrome coronavirus 2, UniProt P0DTC1); experiment: Monomer-dimer equilibrium of MPro^WT in the presence of inhibitor; set-up: species or system SARS-CoV-2; settings: predicted because of thermodynamic stabilization of the dimer upon inhibitor binding
T2 construct: The full-length wild-type (MPro^WT) was expressed and purified; made in house; host or cells: E. coli BL21-DE3
Protocol: Enzyme kinetics were carried out as described previously in reference 1. ^(a)Calculated from Lineweaver-Burk plot. ^(b)Calculated from plot of v vs [E].

MPro^10–306 [3] = biological target: T3, MPro^10–306 (Severe acute respiratory syndrome coronavirus 2, UniProt P0DTC1); type: binding, SARS-CoV-2
T3 construct: MPro^10–306 spans the region 10–306 of MPro followed by GP-6His; GP-6His (C, cleaved yes); made in house; host or cells: E. coli BL21-DE3

MPro^1–199 [4] = biological target: T4, MPro^1–199 (Severe acute respiratory syndrome coronavirus 2, UniProt P0DTC1); set-up: species or system SARS-CoV-2
T4 construct: made in house; host or cells: E. coli BL21-DE3

MPro^1–196 [5] = biological target: T1, MPro^1–196; type: binding, SARS-CoV-2
[6] = biological target: T5, MPro^1–199 (monomeric catalytic domain) (Severe acute respiratory syndrome coronavirus 2, UniProt P0DTC1); type: binding, SARS-CoV-2; set-up: made in house; host or cells: E. coli BL21-DE3
MPro^1–196 [7] = biological target: T1, MPro^1–196; type: binding; settings: NMV: 50 µM mixtures; GC373: high concentrations; diluted to 20 µM in 5% acetic acid
MPro^10–306 [8] = biological target: T3, MPro^10–306; set-up: species or system SARS-CoV-2
MPro^M = tested on: MPro^M; set-up: method as in earlier work; settings: in presence of GC373; supplement numbering; cited from earlier work
[9] = biological target: T5, MPro^1–199 (monomeric catalytic domain); type: binding, SARS-CoV-2
MPro^1–199 [10] = biological target: T4, MPro^1–199; type: binding; settings: for protein-inhibitor adduct in mass spectra: NMV: 50 µM mixtures, GC373: high concentrations, diluted to 20 µM in 5% acetic acid
[11] = tested on: MPro^M (full-length monomeric double mutant E290A, R298A); settings: ITC, cited from earlier work
MPro^WT [12] = biological target: T2, MPro^WT; type: binding; settings: protein with 2x inhibitor, diluted to 20 µM in 5% acetic acid
MPro^1–199 [13] = biological target: T4, MPro^1–199; type: biochemical, SARS-CoV-2
MPro^10–306 [14] = biological target: T3, MPro^10–306; type: binding; settings: 50 µM mixtures, diluted to 20 µM in 5% acetic acid

Compound | Kdimer.app (MPro^1–196 [1]) [µM] | Kdimer.app (MPro^WT [2]) | Kdimer.app (MPro^1–199 [4]) [µM] | apparent Kdimers (MPro^1–199 [4]) | dimer contribution (in monomer units) (MPro^1–199 [4]) [%] | faster sedimenting peak, share of signal (MPro^1–199 [4]) | N (MPro^1–196 [5]) | ΔG (MPro^1–196 [5]) [kcal/mol] | ΔH (MPro^1–196 [5]) [kcal/mol] | ΔS (MPro^1–196 [5]) [cal/mol/K] | N [6] | ΔG [6] [kcal/mol] | ΔH [6] [kcal/mol] | ΔS [6] [cal/mol/K] | protein-inhibitor adduct in mass spectra (MPro^1–196 [7]) | Kdimer.app (MPro^10–306 [8]) | protein-inhibitor adduct in mass spectra (MPro^1–199 [10]) | protein-inhibitor adduct in mass spectra (MPro^WT [12]) | further results
CC(C)C[C@H](NC(=O)OCc1ccccc1)C(=O)N[C@H](C=O)C[C@@H]1CCNC1=O [GC373] | >1200 | ≤2^(d) µM | 1200 ± 200 | more than 175 µM | 20 | about 14% | 0.88 ± 0.09 | -6 | -1.48 ± 0.24 | 15 | 0.9 ± 0.03 | -6.2 | -2.4 ± 0.1 | 12.7 | only the molecular ions of the unmodified protein | >>1200 µM | only the molecular ions of the unmodified protein | not observed | dimer formation in SV-AUC (MPro^1–196 [1]): no dimer was observed; N (MPro^10–306 [3]): 0.54 ± 0.03; ΔG (MPro^10–306 [3]): -6 kcal/mol; ΔH (MPro^10–306 [3]): -1.38 ± 0.1 kcal/mol; ΔS (MPro^10–306 [3]): 15.3 cal/mol/K; Kd (MPro^10–306 [3]; read-out: Kd = Ki): 44 ± 8 µM; Kd (MPro^1–196 [5]; read-out: Kd = Ki): 45 ± 20 µM; Kd ([6]; read-out: Kd = Ki): 32 ± 5 µM; Kdimer.app (MPro^M): 6.2^(e^) µM; fold increase in Kd (weaker binding) relative to MPro^WT [9]: 200 to 300 fold; net ΔG difference relative to MPro^WT [9]: about 3 kcal/mol; Kd ([9]; read-out: Kd range): 32 to 45 µM; N [11]: 1.07 ± 0.02; ΔG [11]: -7.2 kcal/mol; ΔH [11]: -6.0 ± 0.2 kcal/mol; ΔS [11]: 3.9 cal/mol/K; Kd ([11]; read-out: Kd = Ki): 6.2 µM and 6.13 µM
CC(C)(C)[C@H](NC(=O)C(F)(F)F)C(=O)N1C[C@H]2[C@@H]([C@H]1C(=O)N[C@H](C#N)C[C@@H]1CCNC1=O)C2(C)C [NMV, nirmatrelvir] | 510 ± 0.05 | ≤2^(d) µM | 180 ± 0.01 | more than 175 µM | 52 | 68% | 1.05 ± 0.03 | -6.7 | -1.8 ± 0.1 | 16.3 | 0.97 ± 0.04 | -6.5 | -3.9 ± 0.1 | 8.8 | adducts were observed | >510 µM | adducts were observed | nearly equal distribution of MPro^WT and the MPro^WT-NMV adduct | dimer contribution (in monomer units) (MPro^1–196 [1]): 33%; slower sedimenting (2.31S) species, share of integrated signal (MPro^1–199 [4]): 32%; catalytic activity with the FRET substrate upon addition of inhibitor (MPro^1–199 [13]): inhibited; protein-inhibitor adduct in mass spectra (MPro^10–306 [14]): very little binding; also recorded: adducts were observed; dimer formation in SV-AUC (MPro^10–306 [8]): no detectable dimer formation; stability of protein-adducts (MPro^1–199 [10]; 20 µM in acetic acid at ambient temperature (Figs. 7d and S10b)): stable for days
